Measurements taken from patent US11617748B2, “Meclozine derivatives and diclazuril derivatives for use in the prevention and/or the treatment of disorders associated to the inflammation induced by P. acnes” (priority 2016, dated 2023).

Columns and labels:
Assay type in all cases: cell-based, human
Akt = test: Western blot of p-Akt/Akt in P. acnes-stimulated HaCaT cells; conditions: 25 μM, 24 h pre-treatment
Procedure: (§1) Western Blot analysis. Whole cell protein extracts (25 μg) were separated by electrophoresis (LDS-PAGE) under denaturing conditions with NuPAGE Novex 4-12% Bis-Tris gel (1 mm, 12 wells, Invitrogen, UK) and proteins were transferred onto nitrocellulose membranes and saturated in 20 ml of saturation buffer consisting of TBS 1× (Tris Buffered Saline) containing 200 mM Tris, 1.4 M NaCl (pH 7.6), 5% no fat milk, 0.1% Tween 20 for 1 h. […] After washing to remove unbound antibodies, bound primary antibodies were detected by incubation for 1 h using secondary antibody against rabbit- and mouse IgG (Santa Cruz Biotechnology, SC-2357, 1:5000 and SC-2005, 1:5000, respectively). Unbound material was removed by washing and peroxidase activity was detected in a chemiluminescence assay (WesternBright ECL, Advansta, Menlo Park, USA). […]

IL-1β mRNA = test: RT-qPCR of P. acnes-induced IL-1β mRNA in ThP-1 cells; conditions: 10 μM, 24 h pre-treatment, 5 h P. acnes
Procedure: RT-qPCR assay. […] Total RNA was isolated using the NucleoSpin RNA and treated with DNAse I, according to the manufacturer's instructions (Macherey-Nagel, Hoerdt, France). RNA concentration was determined at 260 nm on a nanodrop (Labtech, France) and the ratios for all samples were ranging between 1.6 and 1.9. Complementary DNA were generated from 100 ng of total RNA at 50° C. for 10 min followed by the quantitative PCR analysis, carried out in the LightCycler Nano (Roche), and performed with the iTaq Universal SYBR Green One-Step kit (Bio-Rad Laboratories, Hercules, Calif., USA) with a 2-step cycles conditions set at 95° C. for 60 s followed by 40 cycles of 95° C. for 15 s, 68° C. for 60 s, and ended by a melting curve at 65-95° C., 60 s with 0.1° C./s. From the amplification curves, the threshold cycles (Ct) are determined for the studied genes. The amount of relative RNA in stimulated cells relative to control cells is calculated according to the method of 2Act and expressed as a relative fold change expression normalized to gene expression of internal control (GAPDH). IL-8 primers were used: sens 5′-[sequence]-3′, anti-sens 5′-[sequence]-3′ and GAPDH primers: sens 5′-[sequence]-3′, GADPH anti-sens 5′-[sequence]-3′. Sample quantification was made in triplicate.
Controls experiments were done with unpretreated/unstimulated cell and with P. acnes stimulated cells only.

Cox-2 = test: Western blot of Cox-2 expression in P. acnes-stimulated HaCaT cells; conditions: 25 μM, 24 h pre-treatment
Procedure: as §1

ICAM-1 = test: Western blot of ICAM-1 expression in P. acnes-stimulated HaCaT cells; conditions: 25 μM, 24 h pre-treatment
Procedure: as §1

PI3K = test: Western blot of p-PI3K/PI3K in P. acnes-stimulated HaCaT cells; conditions: 25 μM, 24 h pre-treatment
Procedure: as §1

PPARα = test: Western blot of PPARα expression in P. acnes-stimulated HaCaT cells; conditions: 25 μM, 24 h pre-treatment
Procedure: as §1

IL-8 production [1] = test: IL-8 production by M5-stimulated NHDK, in vitro psoriasis-like model (ELISA); conditions: NHDK + M5, 48 h
Procedure: (§2) Cell culture, pretreatment and stimulation.
(§3) ELISA. Human IL-1β, IL-8, hBD-2 and TNF-α protein concentration were measured in the supernatants of stimulated cells using various ELISA Sets (all from Ready-Set-Go from eBioscience, except hBD-2 measurements: Human DEFB4A/BD-2 ELISA Kit from LSBio) according to the manufacturer's instructions. We used serial dilutions of recombinant human IL-1β, IL-8, hBD-2 and TNF-α for standard curve. The optical density was determined at 450 nm at a wavelength correction of 540 nm.

p38 = test: Western blot of p-p38/p38 in P. acnes-stimulated HaCaT cells; conditions: 25 μM, 24 h pre-treatment
Procedure: as §1

IκB = test: Western blot of IκB / p-IκB in P. acnes-stimulated HaCaT cells; conditions: 24 h pre-treatment; for degradation of p-IκB: 25 μM, P. acnes 30 min-24 h
Procedure: Western Blot analysis. Whole cell protein extracts (25 μg) were separated by electrophoresis (LDS-PAGE) under denaturing conditions with NuPAGE Novex 4-12% Bis-Tris gel (1 mm, 12 wells, Invitrogen, UK) and proteins were transferred onto nitrocellulose membranes and saturated in 20 ml of saturation buffer consisting of TBS 1× (Tris Buffered Saline) containing 200 mM Tris, 1.4 M NaCl (pH 7.6), 5% no fat milk, 0.1% Tween 20 for 1 h. After washing three times for 15 min with 15 ml of TBS/T buffer [1×TBS, 0.1% Tween-20], membranes were incubated overnight with gentle mixing at 4° C. with 10 ml of rabbit polyclonal primary antibodies against human ICAM-1 (SC-7891, 1:500), PPARα (SC-398394, 1:250), PPARβ (SC-74517, 1:200), PPARγ (SC-7196, 1:500), IκB (SC-371, 1:500), p-IκB (SC-7977, 1:500), Cox-2 (SC-7951, 1:250), p-mTOR (CS, Ref 2974, 1:1000), mTOR (CS, Ref 2972, 1:1000), p-p38 (SC-17852, 1:500), p38 (SC-535, 1:250), ERK (SC-94, 1:500), JNK (SC-571, 1:500), and mouse monoclonal primary antibodies against human p-PI3 kinase (CS, Ref 4228, 1:250), PI3 kinase (CS, Ref 4257, 1:250), p-Akt1/2/3 (SC-81433, 1:500), p-ERK (SC-7383, 1:500), p-JNK (SC-6254, 1:500), -actin used to control loading, (SC-47778, 1:1000) diluted in TBS/T supplemented with 5% BSA (antibodies were purchased from Santa Cruz Biotechnology, Inc., Santa Cruz, Calif., USA abbreviated SC; and from Cell Signaling Technology, Inc. Leiden, The Netherlands abbreviated CS above). After washing to remove unbound antibodies, bound primary antibodies were detected by incubation for 1 h using secondary antibody against rabbit- and mouse IgG (Santa Cruz Biotechnology, SC-2357, 1:5000 and SC-2005, 1:5000, respectively). Unbound material was removed by washing and peroxidase activity was detected in a chemiluminescence assay (WesternBright ECL, Advansta, Menlo Park, USA).
The molecular basis for the inhibition of IL-8 production by diclazuril and meclozine has been investigated, in particular it has been evaluated if they interfered with signaling pathways known to be activated when keratinocytes are stimulated with P. acnes. […]

hBD-2 production = hBD-2 production by M5-stimulated NHDK, in vitro psoriasis-like model (ELISA); conditions: NHDK + M5, 48 h
Procedure: as §2, §3

JNK = test: Western blot of p-JNK/JNK in P. acnes-stimulated HaCaT cells; conditions: 25 μM, 24 h pre-treatment
Procedure: as §1

IL-8 production [2] = test: PGN-induced IL-8 production in HaCaT keratinocytes (ELISA); conditions: 6.25 μM, 24 h pre-treatment, PGN 5, 10, 20 μg/ml for 18 h
Procedure: as §3
Previously it has been shown that diclazuril and meclozine were able to inhibit IL-8 and IL-1β productions at the transcriptional and […] levels in pretreated cells stimulated with P. acnes. Here, it is investigated if the nature of the cell stimuli would have an impact on the diclazuril and meclozine effects on the IL-8 and IL-1β productions. Both, HaCaT and ThP-1 cell lines were pretreated with several concentrations of diclazuril and meclozine ranging from 0.39 to 25 μM for 24 h, and then stimulated with 3 different concentrations of peptidoglycanne (PGN) and lipoteicoic acid (LTA) at 5, 10 and 20 μg/ml for 18 h at 37° C. […] Pretreatment of keratinocytes with diclazuril decreased the production of IL-8 by an average of 65% at 6.25 μM regardless of the initial PGN dose used (FIG. 5A). Same results were obtained with meclozine and at 6.25 μM the IL-8 production was reduced by 60% (FIG. 5B).

PKC = test: Western blot of p-PKC/PKC in P. acnes-stimulated HaCaT cells; conditions: 25 μM, 24 h pre-treatment
Procedure: as §1

PPARβ = test: Western blot of PPARβ expression in P. acnes-stimulated HaCaT cells; conditions: 25 μM, 24 h pre-treatment
Procedure: as §1

Row | Compound | phosphorylation of Akt induced by P. acnes (Akt) | inhibition of IL-1β mRNA production (IL-1β mRNA) | expression of Cox-2 (Cox-2) | P. acnes-induced ICAM-1 expression (ICAM-1) | phosphorylation of PI3K induced by P. acnes (PI3K) | expression of PPARα (PPARα) | IC50 (IL-8 production [1]; Homo sapiens, read-out: IC50 of decrease of IL-8 production) | decrease of IL-8 production (IL-8 production [1]; at 3,125 μM) | phosphorylation of p38 induced by P. acnes (p38) | degradation of IκB (IκB; 10 μM, P. acnes 15-180 min) | degradation of p-IκB (IκB) | decrease of hBD-2 production (hBD-2 production; at 12.5 μM) | phosphorylation of JNK induced by P. acnes (JNK) | decrease of PGN-induced IL-8 production (IL-8 production [2]) | phosphorylation of PKC induced by P. acnes (PKC) | expression of PPARβ (PPARβ) | effect on IL-8 production, in words (IL-8 production [1]; 0.39 to 12.5 μM) | effect on hBD-2 production, in words (hBD-2 production; 0.39 to 12.5 μM)
1 | N#CC(c1ccc(Cl)cc1)c1c(Cl)cc(-n2ncc(=O)[nH]c2=O)cc1Cl (stereo not drawn) [diclazuril, Diclazuril] | prevented the phosphorylation | up to 91% | decrease | no effect | prevented the phosphorylation | no change | 2000 to 3000 nM | 66% | prevented the phosphorylation | did not prevented the degradation of IκB | did not alter the degradation of p-IκB | 68% | did not cause any changed | 65% | prevented the phosphorylation | no change |  | 
2 | Cc1cccc(CN2CCN(C(c3ccccc3)c3ccc(Cl)cc3)CC2)c1 (stereo not drawn) [meclozine, Meclozine] | prevented the phosphorylation | ≤ 38% | strongly decrease | decreased its expression | prevented the phosphorylation | strongly decrease |  |  | prevented the phosphorylation |  | did not alter the degradation of p-IκB |  | did not cause any changed | 60% | prevented the phosphorylation | strongly decrease | no effect | no effect
